From patent US20080004266A1, “Method for treating proliferative disorders associated with protooncogene products” (priority 2006, published 2008)

What was measured:
[1] = test system: human acute myelogenous leukemia tumor cell line Mv 4-11; assay: Mv 4-11 (FLT3-ITD) nude mouse xenograft model; assay type: in vivo, human (xenograft in nude mouse); settings: for % T/C value: nude mice, 3 doses
Description: The human acute myelogenous leukemia (AML) cell line, Mv 4-11 (ATCC #CRL-9591), was obtained from the American Type Culture Collection (ATCC; Manassas, Va., USA). Growth of this tumor cell line is dependent upon the expression of an activated form of the FLT3 tyrosine kinase receptor carrying an internal tandem duplication (ITD) mutation, which is the most common molecular defect associated with AML (K. W. Yee et al., Blood 100:2941-2949, 2002). The cells were cultured in growth media prepared with Iscove's Modified Dulbecco's Media, 10% fetal bovine serum (FBS), 1% 100× Penicillin-Streptomycin, 1% 100× sodium pyruvate and 1% 100×MEM non-essential amino acids. FBS was obtained from ATCC and all other reagents were obtained from Invitrogen Corp. (Carlsbad, Calif., USA). Cells that had been cryopreserved in liquid nitrogen were rapidly thawed at 37° C. and transferred to a tissue culture flask containing growth media and then incubated at 37° C. in a 5% CO2 incubator. To expand the cell line, cultures were passaged 1:2 to a density of 5×10 (6) cells/ml every three days by adding an equal volume of fresh growth media. When the flasks reached a density of approximately 10×10 (6) cells/ml, the above passaging process was repeated until sufficient cells had been obtained for implantation into mice.
Seven to eight week old, female Crl:CD-1-nuBR (nude) mice were obtained from Charles River Laboratories (Wilmington, Mass., USA). Animals were housed 4-5/cage in micro-isolators, with a 12 hr/12 hr light/dark cycle, acclimated for at least 1 week prior to use and fed normal laboratory chow ad libitum. Studies were conducted on animals between 8 and 10 weeks of age at implantation. To implant Mv 4-11 tumor cells into nude mice, cell cultures were centrifuged to pellet the cells, the supernatant was aspirated, the cell pellet was resuspended in 10 ml of growth media and the cell number determined using a hemocytometer. […]
Tumors were then permitted to develop in vivo until the majority reached 100-200 mm^3 in tumor volume, which typically required 1-2 weeks following implantation. […] Tumor volumes (V) were calculated by caliper measurement of the width (W), length (L) and thickness (T) of tumors using the following formula: V=0.5236×(L×W×T). Animals were randomized into treatment groups so that the median tumor volumes of each group were similar at the start of dosing. % T/C values, as a measure of efficacy, were determined as follows: • (i) If ΔT>0: % T/C=(ΔT/ΔC)×100 • (ii) If ΔT<0: % T/C=(ΔT/T0)×100 • (iii) ΔT=Change in median tumor volume between start of dosing and the end of study. • (iv) ΔC=Change in median tumor volume between start of dosing and the end of study. • (v) T0=Median tumor volume at start of dosing. […]

[2] = test system: NCI-H1975 cells (EGFR T790M and L858R); assay: Cell survival in NCI-H1975 cells (Cell Counting Kit-8); assay type: cell-based, human; settings: Homo sapiens, 72 hours
Description: Human lung cancer cell line NCI-H1975 which harbors both the T790M and the L858R mutations in EGFR was obtained from American Type Culture Collection. NCI-H1975 (10,000 cells/well) were cultured in 96-well plates and maintained at 37° C. for several hours. The cells were incubated at 37° C. for 72 hours with various concentrations of compound 226 of the invention, 17AAG or DMAG. 17AAG and DMAG are Hsp90 inhibitors that are currently in clinical trials and are used here as positive controls for Hsp90 inhibition. Cell survival was measured with Cell Counting Kit-8 (Dojindo Laboratories, Cat # CK04).

[3] = 125 mg/kg i.v. 1 time per week, day 41

Compound: CC(C)c1cc(-c2nnc(O)n2-c2ccc3c(ccn3C)c2)c(O)cc1O [Compound 226, 3-(2,4-di-hydroxy-5-isopropyl-phenyl)-4-(1-methyl-indol-5-yl)-5-hydroxy-[1,2,4] triazole]
- average bodyweight loss relative to the start of the study [1, 3]: −1.4% (+/−1.6 SEM)
- animals with no apparent tumors ([1]; 125 mg/kg treatment group, by day 41 (end of the study)): 2 of 8
- % T/C value ([1]; 50 mg/kg i.v. 1 time per week, day 41): −63.8%
- % T/C value [1, 3]: −93.0%
- IC50 [2]: 16 nM
